# Measurements reported in patent US10512673B2, “Use of peptide-based inhibitors of the stat3-IL10 pathway for treating bacterial infection and granulomatous disease” (The United States of America, as Represented by the …, priority 2015, dated 2019).
# Columns and labels:
# NADPH = NADPH assay in lung homogenates; format: in vivo, C57BL/6 mice; conditions: 100 μg/dose, vs untreated infected mice
# Description: (§1) The quantification of end effector molecules and enzymes involved in the host antimicrobial activity in the lungs of mice were performed using lung homogenates obtained as indicated above. Lung homogenate supernatants were used in a Griess reaction (G 7921, Molecular probes, Invitrogen, Eugene, Oreg.), Arginase assay (Bioassay Systems, DARG-200), NADPH (Bioassay Systems, ECNP-100), and lysozyme (Molecular Probes E-22013).
# For the NADPH assay, each lung homogenate was mixed in a 1.5 mL Eppendorf tube with 100 μL NADPH extraction buffer for NADPH determination. Extracts then were heated at 60° C. for 5 min and then 20 μl assay buffer and 100 μl of the opposite extraction buffer were added to neutralize the extracts. Samples were briefly vortexed and centrifuged at 13,000 rpm for 5 min. The resulting supernatant was used for NADPH assays. 40 μl of standards were then transferred into wells of a clear bottom 96-well plate. For each well of the reaction, 80 μL working reagent were added per well quickly. Optical density for time “zero” (OD0) optical density after 30 min incubation (OD30) at room temperature were read at 565 nm (520-600 nm).
# [1] = test system: Mycobacterium tuberculosis (Erdman strain); conditions: in vivo
# stat3 = test system: stat3; design: species or system C57BL/6 mice; conditions: mouse, in vivo
# pSTAT3 (pY705) = experiment: ELISA for pSTAT3 in lung homogenates; format: in vivo, C57BL/6 mice; conditions: after two weeks of treatment (100 μg/dose), vs untreated infected mice
# Description: Lung homogenates were screened for pSTAT3 (pY705 (tyrosine 705)) by ELISA following manufacturer's recommendations (Life Technologies). Briefly, the lung homogenates were re-suspended in the cell extraction buffer and incubated during 30 minutes on ice with intermittent vortexing followed by pelleting of the cell debris. Supernatants from each sample were collected and screened for their content of STAT3 (pY705). Standards were prepared using purified recombinant phosphorylated STAT3 protein. Thereafter, 100 μl of standards and diluted samples or control aliquots were distributed into microtiter wells and were incubated in the wells pre-coated with anti-pSTAT3 antibody. The reactions were developed using the detection anti-pSTAT3 antibody followed by 30 minutes incubation at RT with anti-rabbit IgG HRP. The reactions were visualized by incubation with a chromogenic substrate of HRP during 30 minutes at room temperature. The reactions were stopped with 100 μl of stop solution added to each well. Absorbance for each well was read at 450 nm.
# bcl-2 [2] = experiment: ELISA for Bcl-2 protein in lung homogenates; format: in vivo, C57BL/6 mice; conditions: 100 μg/dose, vs untreated infected mice
# Text: (§2) When lung homogenates from each mouse were used to determine the levels of expression of Bcl-2 and Atg-5 protein using ELISA, the results were similar to those obtained by qRT-PCR.
# IFNγ = experiment: Cytometric bead array for IFNγ in lung homogenates; format: in vivo, C57BL/6 mice; conditions: CBA, 100 μg/dose, vs control mice
# TNFα = experiment: Cytometric bead array for TNFα in lung homogenates; format: in vivo, C57BL/6 mice; conditions: CBA, 100 μg/dose, vs control mice
# arg1 [3] = experiment: RT-PCR of arg1 transcript in lungs; format: in vivo, C57BL/6 mice; conditions: mouse, in vivo
# beclin-1 = experiment: qRT-PCR of beclin-1 transcript in lungs; format: in vivo, C57BL/6 mice; conditions: 100 μg/dose
# Description: (§3) The upper right lobe of the lungs from each mouse were homogenized in Trizol (Invitrogen) using Next Advance bullet blender (Averill Park, N.Y.) and frozen at −80° C. immediately. RNA was extracted following the manufacturer's protocol. Trizol DNA was digested with RQ1 RNase-free DNase (Promega, Madison, Wis.) and RNA was re-isolated using Trizol. Finally, the concentration of RNA in each sample was measured by spectrophotometry and the RNA was reverse transcribed with M-Mulv (New England Bio Labs, Ipswich, Mass.) and random hexamers (Roche, Basel, Switzerland).
# as §2
# Il-10 [4] = experiment: Cytometric bead array for IL-10 in lung homogenates; design: species or system C57BL/6 mice; conditions: mouse, in vivo
# Il-10 [5] = test system: Il-10; design: species or system C57BL/6 mice; conditions: mouse, in vivo
# IL-12p40 = experiment: Cytometric bead array for IL-12p40 in lung homogenates; format: in vivo, C57BL/6 mice; conditions: CBA, 100 μg/dose, vs control mice
# nos2 [6] = experiment: RT-PCR of nos2 transcript in lungs; format: in vivo, C57BL/6 mice; conditions: mouse, in vivo
# [7] = test system: Mycobacterium tuberculosis (Erdman strain); conditions: in vivo; remark: listed apart in the source
# bax = experiment: qRT-PCR of bax transcript in lungs; format: in vivo, C57BL/6 mice; conditions: 100 μg/dose
# Description: as §3, §2
# bcl-2 [8] = experiment: qRT-PCR of bcl-2 transcript in lungs; format: in vivo, C57BL/6 mice; conditions: 100 μg/dose
# Description: as §3, §2
# lysozyme = experiment: Lysozyme assay in lung homogenates; format: in vivo, C57BL/6 mice; conditions: 100 μg/dose, vs untreated infected mice
# Description: as §1
# The Lysozyme assay was performed as per manufacturer's instructions. Briefly, experimental samples were first diluted in 1× reaction buffer. A volume of 50 μl was used for each reaction. Then, 50 μl of the 50 μg/ml DQ lysozyme substrate were added to each microplate well containing the experimental or the standard curve samples. The reaction mix was then incubated at 37° C. for 30 min protected from light. The fluorescence in each of the samples was measured at absorption maxima at ˜494 nm and fluorescence emission maxima at ˜518 nm.
# IL-6 = experiment: Cytometric bead array for IL-6 in lung homogenates; format: in vivo, C57BL/6 mice; conditions: CBA, 100 μg/dose, vs control mice
# pSTAT3 = experiment: Immunohistochemistry for pSTAT3 in lung tissue sections; design: species or system C57BL/6 mice; conditions: mouse, in vivo
# nos2 [9] = experiment: NOS2 activity in lung homogenates (Griess reaction); format: in vivo, C57BL/6 mice; conditions: 100 μg/dose, vs untreated infected mice
# Description: as §1
# For the Griess reaction, reagents were acclimated at room temperature for 20 min prior to the assay. Thereafter, the samples were centrifuged at 1200 rpm for 2 min and the Griess reaction was performed following the manufacturer's instructions. Briefly, samples and prepared standards were diluted following the manufacturer's instructions with distilled sterile water in a 96 well plate. 20 μl of Griess reaction were added to each reaction well. Samples and standards were incubated for 30 minutes in the dark. Thereafter, samples were read using a Biotech Synergy 2 Multi-Mode Micro Plate Reader [U5] spectrophotometer at 546 nm.
# arg1 [10] = experiment: Arginase activity in lung homogenates; format: in vivo, C57BL/6 mice; conditions: 100 μg/dose, vs untreated infected mice
# Description: as §1
# The level of arginase activity in each lung homogenate was performed using the Quanti-Chrom Arginase Assay Kit (Bio Assay Systems, Hayward, Calif.). Briefly, protein concentration was normalized to 100 μg/ml. As a control, an aliquot of normalized protein was heat-inactivated at 90° C. for 10 min. 40 μl of untreated or heat-inactivated sample was incubated at 37° C. for 60 min with 10 μl of 5× reagent. Thereafter, the reaction was processed as recommended by the manufacturer and analyzed in a plate reader (Bio-Rad, Hercules, Calif.) at an absorbance of 430 nm. The absorbance of the heat-inactivated sample was subtracted from the respective untreated sample and then compared to urea standards. Activity of the arginase was reported in mU/mg of protein.
# [11] = mouse, in vivo
# [12] = test system: granuloma lesions in the lungs; experiment: Lung histopathology (H&E); design: species or system C57BL/6 mice; conditions: mouse, in vivo
# atg5 = experiment: qRT-PCR of atg5 transcript in lungs; format: in vivo, C57BL/6 mice; conditions: 100 μg/dose
# Description: as §3, §2
sequence,measurement,setting,value
LDTRYLEQLHKLY [ST3-H2A2],NADPH activity (pyridine nucleotide),NADPH,significantly elevated
same,reduction of pulmonary CFU,[1],0.6 log10
same,reduction of pulmonary bacterial load,[1],1.7 log10 CFU
same,pulmonary expression of stat3 transcript,stat3,no significant changes
same,level of pSTAT3 in lung homogenates,pSTAT3 (pY705),little change
same,level of Bcl-2 protein in lung homogenates,bcl-2 [2],significantly increased
same,level of IFNγ expression in the lungs,IFNγ,decreased and down
same,level of TNFα in the lungs,TNFα,reduced
same,mRNA arg1 expression (in words),arg1 [3],decreased expression
same,increase in expression of beclin-1 transcript,beclin-1,> 3 fold
same,level of IL-10 in lung homogenates,Il-10 [4],little change
same,pulmonary expression of il-10 transcript,Il-10 [5],increased levels of expression
same,expression level of IL-12p40 in the lungs,IL-12p40,increased and up
same,mRNA nos2 expression (in words),nos2 [6],increased more significantly
same,reduction of splenic bacilli load,[7],0.9 log10CFU
same,increase in expression of bax transcript,bax,> 3 fold
same,increase in expression of bcl-2 transcript,bcl-2 [8],> 3 fold
same,lysozyme activity (DQ substrate),lysozyme,significantly elevated
same,expression level of IL-6 in the lungs,IL-6,increased
same,pSTAT3 staining by IHC in lung tissue sections,pSTAT3,reduced levels of pSTAT3 staining in the center of the granuloma lesions
same,NOS2 activity (concentration of NO),nos2 [9],significantly elevated
same,Arg1 activity,arg1 [10],reduced or not changed
same,adverse effects during treatment (body weight),[11],mild weight loss
same,histopathology of H&E stained lung sections,[12],increased numbers of clusters and highly packed lymphocytes
same,increase in expression of atg5 transcript,atg5,> 3 fold
